Consider one compound from publication PMC8032764 (Scientific Reports, 2021).

The test system of one data set is T1, human GABAA α2β3γ2.
T1 construct: expressed in transfected cells; host or cells: Xenopus laevis oocytes, cRNA injection
In words: Two-electrode voltage clamp in Xenopus oocytes, current induced by EC10 of GABA. In kind it is cell-based. The settings on record: 3000 nM. As for the experimental part:
(§1) Freshly prepared oocytes of maturation stage VI were bought from Ecocyte Bioscience (Castrop-Rauxel, Germany) and, after overnight delivery, plated into 96-well plates (Greiner no. 651101) for microinjection on a ROBOOCYTE R16 system (Multichannel Systems MCS GmbH, Reutlingen, Germany). Each oocyte was injected with roughly 50 nL of RNA solution. The solution for expressing receptors composed of the human α1, β2 and γ2 subunits contained 3 pg/nL of α1 and β2 RNA and 15 pg/nL of γ2 RNA. The solution for expressing human α2β3γ2 receptors contained 2.5 pg/nL of α2 and β3 RNA, 5 pg/nL of γ2 RNA and 10 pg/nL of GABARAP RNA. The solution for expressing human α3β3γ2 receptors contained 1.3 pg/nL of α3 and β3 RNA and 6.5 pg/nL of γ2 RNA. The solution for expressing human α5β3γ2 receptors contained 1.3 pg/nL of α5 and β3 RNA and 13 pg/nL of γ2 RNA. GABARAP was added to the α2β3γ2 subunit mixture since the expression of γ2 would be low otherwise, as indicated by a weak effect of β-CCM[60]. After the microinjection the oocytes were kept at 20 °C temperature until the electrophysiological experiment. Experiments were done 3 to 5 days later on the ROBOOCYTE instrument which employs the two-microelectrode voltage-clamp technique for membrane voltage control and current measurement. […] During current recording and compound testing the cell membrane was constantly clamped to − 80 mV. Current signals were recorded and stored on a PC-type computer using the ROBOOCYTE software.
(§2) During the microinjection and up to the electrophysiological experiment the oocytes were kept in a solution containing 88 mM NaCl, 1 mM KCl, 2.5 mM NaHCO3, 10 mM HEPES (AppliChem GmbH, Darmstadt, Germany), 0.82 MgSO4, 0.33 mM Ca(NO3)2, 0.33 mM CaCl2, 100 U/mL penicillin (GIBCO, ThermoFisher Scientific) and 100 µg/mL streptomycine (GIBCO, ThermoFisher Scientific). The pH was adjusted to 7.5. During the experiment the voltage-clamped oocyte was constantly superfused by a solution containing 90 mM NaCl, 1 mM KCl, 5 mM HEPES (AppliChem), 1 mM MgCl2 and 1 mM CaCl2 (pH 7.4). GABA and test compounds were added to this solution. GABA concentrations were chosen according to previously determined concentration–response relations for the different human GABAA receptor subunit combinations. Concentrations evoking approximately 10% of a maximal response were selected, i.e., 8 µM for α1β2γ2, 6 µM for α2β3γ2, 10 µM for α3β3γ2 and 5 µM for α5β3γ2. Solutions containing GABA or test compounds were freshly prepared at least every second day. […] Compounds were further diluted in DMSO and finally in extracellular saline to reach a DMSO concentration of 0.1%. The same amount of DMSO was added to the control solutions without test compounds. […]
On the technique in general: Two-electrode voltage clamp is typically applied to oocytes expressing channels or transporters.

The test system of the next data set is T2, human GABAA α1β2γ2.
T2 construct: expressed in transfected cells; host or cells: Xenopus laevis oocytes, cRNA injection
The description is as above. The format is cell-based. To be noted: 3000 nM. Here is the method: as §1, §2

A further data set has as its system T3, human GABAA α3β3γ2.
T3 construct: expressed in transfected cells; host or cells: Xenopus laevis oocytes, cRNA injection
Described as above. In kind it is cell-based. The settings on record: 3000 nM. Here is the method: as §1, §2

In data set [1] the test system is Somatostatin (non-selective). Briefly: Cerep binding. To be noted: 10 μM; [125I]Tyr11-somatostatin-14; mouse, AtT-20 cells.
Data set [2] can be described thus: Plasma concentration in PET study. In kind it is in vivo. To be noted: human. As for the experimental part:
The study was single-blind, i.e., subjects were blinded to dose. Blood sampling was performed at four different timepoints starting 30 min before the post dose PET scan.

In the next data set the test system is T4, Muscarinic M3.
T4 construct: host or cells: CHO
Briefly: Cerep binding. More on the design: species or system human. The settings on record: 10 μM; [3H]4-DAMP; hum. recomb. (CHO).

The next data set has as its system T5, Opioid κ.
T5 construct: host or cells: CHO
In words: Cerep binding. Also noted: species or system human. To be noted: 10 μM; [3H]U 69593; hum. recomb. (CHO).

The next data set concerns the target human GABAA α5β3γ2 (Homo sapiens, UniProt P18507+P31644). Briefly: biochemical. To be noted: 1 nM [3H]-flumazenil. As for the experimental part:
HEK293-EBNA cells adapted to grow in suspension were transiently transfected with the plasmids containing the desired GABAA receptor subunit cDNAs at α, β, γ, 1:1:2 ratio using XtremeGENE Q2 (Cat. No. 03045595001, Roche Applied Science, RAS, Rotkreuz, Switzerland) as previously described. GABAA α1β2γ2, α2β3γ2, α3β3γ2, α4β3γ2, α5β3γ2 and α6β3γ2 receptor subtypes were expressed in this system. 48 h post transfection, the cells were harvested and washed three times with cold PBS and frozen at − 80 °C.
Non-specific binding was determined in the presence of 10 μM diazepam.

The subject of data set [3] is Adrenergic α1 (non-selective). Briefly: Cerep binding. To be noted: 10 μM; [3H]prazosin; rat cerebral cortex.
The next data set has as its system T6, Opioid δ2.
T6 construct: host or cells: CHO
Briefly: Cerep binding. To be noted: 10 μM; [3H]DADLE; hum. recomb. (CHO). More on the design: species or system human.

The next data set deals with T7, Serotonin 5-HT1A.
T7 construct: purchased Eurofins Cerep
Briefly: Cerep binding. Also noted: species or system human. To be noted: 10 μM; [3H]8-OH-DPAT; hum. recomb. (HEK-293).

“And” between values parts separate entries of the source, which are not always exact repeats. Equal entries are not always repeated.

human GABAA α5β3γ2, sequence (P31644 32-462): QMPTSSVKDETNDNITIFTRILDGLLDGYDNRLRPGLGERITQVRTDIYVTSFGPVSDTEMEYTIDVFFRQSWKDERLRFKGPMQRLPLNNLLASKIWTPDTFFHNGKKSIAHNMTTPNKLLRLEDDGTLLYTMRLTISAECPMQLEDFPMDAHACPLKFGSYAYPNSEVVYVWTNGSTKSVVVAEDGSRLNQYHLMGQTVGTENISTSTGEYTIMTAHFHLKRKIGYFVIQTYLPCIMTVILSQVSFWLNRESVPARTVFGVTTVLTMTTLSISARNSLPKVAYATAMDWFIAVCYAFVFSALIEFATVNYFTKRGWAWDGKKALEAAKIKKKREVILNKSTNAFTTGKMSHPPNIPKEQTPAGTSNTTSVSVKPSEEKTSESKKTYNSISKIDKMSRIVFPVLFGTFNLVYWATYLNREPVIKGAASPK
human GABAA α5β3γ2, sequence (P28472 26-473 partner): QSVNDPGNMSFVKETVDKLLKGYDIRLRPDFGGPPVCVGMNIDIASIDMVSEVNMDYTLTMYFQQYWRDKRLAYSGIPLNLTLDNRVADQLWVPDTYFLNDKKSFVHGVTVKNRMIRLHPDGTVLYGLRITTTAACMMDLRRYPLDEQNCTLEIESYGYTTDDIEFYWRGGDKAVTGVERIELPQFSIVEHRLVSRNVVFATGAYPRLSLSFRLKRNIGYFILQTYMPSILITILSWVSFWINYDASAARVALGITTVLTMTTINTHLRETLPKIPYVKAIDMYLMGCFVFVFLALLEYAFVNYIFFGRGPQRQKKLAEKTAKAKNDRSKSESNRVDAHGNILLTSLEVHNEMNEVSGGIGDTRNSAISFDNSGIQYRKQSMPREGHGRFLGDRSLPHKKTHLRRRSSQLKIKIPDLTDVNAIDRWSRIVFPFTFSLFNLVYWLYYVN
human GABAA α5β3γ2, sequence (P18507 40-475): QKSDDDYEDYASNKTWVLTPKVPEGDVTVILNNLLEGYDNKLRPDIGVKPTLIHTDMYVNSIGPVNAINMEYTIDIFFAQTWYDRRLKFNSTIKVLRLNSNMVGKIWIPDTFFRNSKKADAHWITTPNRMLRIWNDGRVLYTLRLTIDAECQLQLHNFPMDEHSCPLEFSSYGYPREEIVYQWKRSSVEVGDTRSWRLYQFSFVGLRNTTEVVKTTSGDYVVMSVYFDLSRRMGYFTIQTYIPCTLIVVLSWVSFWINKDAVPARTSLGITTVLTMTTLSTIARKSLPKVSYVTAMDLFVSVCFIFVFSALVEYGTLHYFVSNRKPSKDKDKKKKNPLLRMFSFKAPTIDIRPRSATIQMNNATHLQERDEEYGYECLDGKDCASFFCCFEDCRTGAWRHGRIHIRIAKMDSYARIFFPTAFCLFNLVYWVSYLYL

For the compound `Cc1onc(-c2ccc(F)cc2)c1COc1ccc(C(=O)N2CCS(=O)(=O)CC2)cn1` [basmisanil], the inhibition with human GABAA α2β3γ2, with human GABAA α1β2γ2 and with human GABAA α3β3γ2 was less than 10% throughout. Moreover, the “% Inhibition” value in [1] is 18%; in the data set on Muscarinic M3, 4%; in the data set on Opioid κ, 13%; in data set [3], -1%; in the data set on Opioid δ2, 8%; with Serotonin 5-HT1A it was 0%. This compound had a concentration at 3.75 h in data set [2] (subject 11010, 40 mg, 3.75 h prior to scan) of 592 ng/mL. The concentration at 3.12 h in data set [2] (subject 11020, 160 mg, 3.12 h prior to scan) came to 2280 ng/mL. In data set [2] (subject 11021, 160 mg, 3.00 h prior to scan), this compound came in with a concentration at 3 h of 2550 ng/mL. For the same compound, the concentration at 2.63 h in data set [2] (subject 13010, 40 mg, 2.63 h prior to scan) worked out at 422 ng/mL. This compound also returned a concentration at 4.75 h in [2] (subject 13030, 1000 mg, 4.75 h prior to scan) of 2200 ng/mL. This compound also had a concentration at 4.77 h in data set [2] (subject 13031, 1000 mg, 4.77 h prior to scan) of 3350 ng/mL. In addition, the concentration at 1.48 h in data set [2] (subject 13040, 20 mg, 1.48 h prior to scan) turned out to be 111 ng/mL. In [2] (subject 13041, 20 mg, 2.20 h prior to scan), the concentration at 2.2 h came to 398 ng/mL. For the same compound, in data set [2] (subject 13050, 80 mg, 2.43 h prior to scan), the concentration at 2.43 h stood at 1000 ng/mL. For the same compound, the Ki at human GABAA α5β3γ2 is 5 nM and 5.1 nM.

A word on the inhibition: it is the relative decrease from the control value, in per cent. For orientation: % Inhibition means the change of the read-out against control, counted positive when it falls. Broadly, the Ki is a measure of affinity in units of concentration, obtained from inhibition or displacement. Read a high Ki as a looser hold on the target.
